Laboratory results taken from patent EP0792647A1, “Porphyrins as urokinase-type plasminogen activator receptor antagonists” (BOEHRINGER MANNHEIM GMBH, priority 1996, dated 1997).
Structures can show the parent of a compound that is named as a salt. Where two headings read alike, the source gives them in different places.

Columns and labels:
[1] = biological target: T1, human urokinase (uPA) binding to its specific receptor (uPAR) (Homo sapiens, UniProt Q03405); assay: ELISA-Test: inhibition of uPA binding to its specific receptor (uPAR); details: synthetic or commercially available porphyrins; for IC50: read-out: IC50 (µg/ml) ELISA (converted)
Method: This test is described by P. Rettenerger et al. in Biol. Chem. Hoppe-Seyler 376, pp. 587-594 (1995). An alternate ELISA-test is described in Behrendt et al., Meth. Enzymol. 233 (1993), 207-222. • ELISA-Test: Inhibition of human urokinase (uPA) binding to its specific receptor (uPAR). The assays are performed in Microtiterplates (96 wells). The following solutions are used: • washing buffer: PBS-buffer (w/o Mg^2+Ca^2+) + 0,05% Tween 20; uPAR-solution 100 ng/ml (10 ng/well) • blocking solution 2% skimmed milk powder (Merck) in washing buffer • incubation buffer 0.5% skimmed milk powder in PBS uPA-solution 10 ng/well detection solutions (per microfilter plate): • (1) 6 ml (100 mM Tris-CI pH 7.5 + 0.15% Tween 80) + 1.5 ml (10 µg) Plasminogen in aqua bidest. • (2) 6 ml (100 mM Tris-CI pH 7.5 + 0.15% Tween 80) + 1.5 ml (7.5 mg) Chromozyme PL in aqua bidest.
The detection solution must be continously stirred.
Testing substances: the testing substances are solved in DMSO. They are used in the test system with a highest concentration of 100 µg/ml. Dissolutions are prepared using PBS.
Three controlls are performed: • a) positive controll: using 2% DMSO in PBS • b) negative controll: assay w/o receptor • c) inhibition controll: Inhibition (IC95 at 0.25 mg/ml) with Dextranesulfate (MW = 500.000)
Each well is incubated by 10 ng uPAR for 1 hour at roomtemperature (RT). After washing once each well is incubated for half an hour (37°C) with 200 µl/well blocking solution. After triple washing testing substance solution or controll solutions are added (50 µl/well and incubated for 15 min at RT. An additional 50 µl of uPA solution (10 ng in incubation buffer) are added. After 1 hour at RT a triple washing is performed.
Incubation 70 µl each of solution (1) and (2) at RT. After 20 min. a yellow color will be visible (the positive control reads an extinction of 1 after 40 min.). The detection is performed at […] (reference is […]) using a Dynatech MR 7000 ELISA reader.
To obtain the percentage of inhibition the following formula is used: % Inhibtion = 100-100* (Extinction (Test) - Extinction (Neg. contr.)/(Extinction (Pos. contr.) - Extinction (Neg. contr.)) [formula]

[2] = biological target: Urokinase (uPA not bound to uPAR) (Homo sapiens, UniProt P00749); assay: ENZ: Urokinase-activity-assay (uPA not bound to uPAR); type: biochemical; details: assay without uPAR; for IC50: read-out: IC50 (µg/ml) ENZ (converted)
Method: ENZ: Urokinase-activity-assay (uPA not bound to uPAR)
This assay is identical to the uPA/uPAR assay of example one except that no uPAR is used, i.e. no incubation of the wells with uPAR and the following washing steps is necessary.

[3] = biological target: T2, NIH 3T3 cells transfected with a human urokinase receptor (Homo sapiens, UniProt Q03405); assay: Cellular assay: uPA binding to NIH 3T3 cells transfected with a human urokinase receptor; type: cell-based
T2 construct: expressed in transfected cells; host or cells: NIH 3T3 (clone NIH3T3 CH1 (15.10)), mouse fibroblasts
Method: An enzyme test was used to detect inhibtion of urokinase activity and a cellular assay using NIH 3T3 (from ATCC) cells transfected with a human urokinase receptor was obtained.
Medium: • DMEM (MEM dulbecco/Boehringer) with NaHCO3 and 4.5 g/l Glucose
add: • 10% FCS (Seromed) • 2 mM L-Glutamine • 1 mM Na-Pyruvat • 100 U/ml Penicillin • 100 µg/ml Streptomycin • 1 µg/ml G 418 (Geneticin) • sterilize all supplements by filtration
Take a 1 mg/ml fibronectin solution (in sterile water) and dilute an appropriate aligot with sterile PBS to a final concentration of 50 µg/ml. Coat the 96-well plate with 200 µl//well. Incubate for about 45 min. at room temperature. Remove the solution carefully. The wells should not be allowed to dry, use immediately. Prepare the cells during the 45 min. of incubation with fibronectin. NIH3T3 CH1 (15.10)-cells are grown to confluency in T 175 cell-culture flasks in the above described medium. Remove the media and rinse the cells with PBS, add 2 ml of Trypsin / EDTA solution for cell detachment. Stop trypsin activity by addition of approx. 6 ml medium . Take an aliquot of the cells to determine the cellnumber and adjust the celldensity to 8 x 10^5/ml with medium. Take the fibronectin coated 96 well palate and spread 100 µl cell-suspension/well, let the cells grow to confluency over night.
Discard the medium carefully and wash the cells by addition of 200 µl medium (without supplements) / well and again discarding the medium. Add 200 µl 2% skimmed milk in medium. Incubate for 30 minutes at roomtemperatur. Wash twice with 200 µl medium (w supplements) / well carefully (to remove unbound skimmed milk). Preincubate with 50 µl testcompound diluted in medium, respectively medium only for the controls for 20 minutes; add 50 µl uPA-solution [200 ng/ml]. Incubate for 60 minutes at roomtemperature; wash carefully for 3 times with medium (200 µl/well). […] Measure at a wavelength of 405 nm (reference: 490 nm) with an ELISA-Reader. The yellow colour will appear after about 45 mins.

[4] = biological target: T1, human urokinase (uPA) binding to its specific receptor (uPAR); assay: ELISA-Test: inhibition of uPA binding to its specific receptor (uPAR)
[5] = NIH3T3 CH1 (15.10)-cells, read-out: IC50 (µg/ml) cells (converted)

T2 sequence (Q03405 23-305 limits assumed): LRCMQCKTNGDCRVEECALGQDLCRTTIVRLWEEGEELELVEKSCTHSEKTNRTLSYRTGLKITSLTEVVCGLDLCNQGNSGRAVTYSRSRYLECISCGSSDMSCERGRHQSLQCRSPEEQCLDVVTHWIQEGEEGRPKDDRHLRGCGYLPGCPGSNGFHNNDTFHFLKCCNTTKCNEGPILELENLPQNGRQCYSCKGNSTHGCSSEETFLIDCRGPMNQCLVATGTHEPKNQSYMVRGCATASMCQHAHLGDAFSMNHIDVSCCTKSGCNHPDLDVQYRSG
T1 sequence (Q03405 23-305 limits assumed): as above

Row | Molecule | IC50 [1] [nM] | IC50 [2] [nM] | other results
1 | O=C(O)c1ccc(-c2c3nc(c(-c4ccc(C(=O)O)cc4)c4ccc([nH]4)c(-c4ccc(C(=O)O)cc4)c4nc(c(-c5ccc(C(=O)O)cc5)c5ccc2[nH]5)C=C4)C=C3)cc1 [meso-tetra-(4-Carboxyphenyl)-Porphine] | 266 | 860 | IC50 [3, 5]: 30.6 µM
2 | C=Cc1c(C)c2cc3nc(c(CC(=O)O)c4[nH]c(cc5nc(cc1[nH]2)C(C)=C5CC)c(C)c4C(=O)O)[C@@H](CCC(=O)O)[C@@H]3C [Chlorin e6] | 520 | 2350 | IC50 [3, 5]: 12.9 µM
3 | Hematoporphyrin D | – | – | IC50 (µg/ml) ELISA [1]: 0,52 µg/ml; IC50 (µg/ml) ENZ [2]: 3,1 µg/ml; IC50 (µg/ml) cells ([3]; NIH3T3 CH1 (15.10)-cells): 1,4 µg/ml
4 | COC(=O)CCC1=C(C)c2cc3[nH]c(cc4nc(cc5[nH]c(cc1n2)c(CCC(=O)OC)c5C)C(S(=O)(=O)O)=C4C)c(S(=O)(=O)O)c3C [Deuteroporphyrin IX 2,4 Disulfonic Acid dimethylester] | 1820 | 3510 | –
5 | Al Phtalocyanine Tetrasulfonate | – | – | IC50 (µg/ml) ELISA [1]: 3,7 µg/ml; IC50 (µg/ml) ENZ [2]: 2,3 µg/ml
6 | CCC1=C(C)c2cc3[nH]c(cc4nc(cc5[nH]c(cc1n2)c(C)c5CCC(=O)O)C(CCC(=O)O)=C4C)c(C)c3CC [Mesoporphyrin IX Dihydrochloride] | 406 | 2120 | IC50 [3]: 2.77 µM
7 | N-Methyl Protoporphyrin IX | – | – | IC50 (µg/ml) ELISA [1]: 0,4 µg/ml
8 | C=CC1=C(C)C(=Cc2[nH]c(Cc3[nH]c(C=C4NC(=O)C(C)=C4C=C)c(C)c3CCC(=O)O)c(CCC(=O)O)c2C)NC1=O [Bilirubine] | – | – | inhibition at 300 µg/mL [4]: 11%
9 | CC1=C(CCC(=O)O)c2cc3[nH]c(cc4nc(cc5[nH]c(cc1n2)c(C)c5C(O)CO)C(C)=C4C(O)CO)c(C)c3CCC(=O)O (centres unmarked) [Deuteroporphyrin IX 2,4-Bis Glycol] | 8400 | 4280 | –
10 | O=S(=O)(O)c1ccc(-c2c3nc(c(-c4ccc(S(=O)(=O)O)cc4)c4ccc([nH]4)c(-c4ccc(S(=O)(=O)O)cc4)c4nc(c(-c5ccc(S(=O)(=O)O)cc5)c5ccc2[nH]5)C=C4)C=C3)cc1 [meso-tetra-(4-Sulfonatophenyl)-Porphine Dihydrochlorid] | 214 | 674 | IC50 ([3]; read-out: IC50 (µg/ml) cells, NIH3T3 CH1 (15.10)-cells): 21.3 µM
11 | CCOC(=O)CCC1=C(C)c2cc3[nH]c(cc4nc(cc5[nH]c(cc1n2)c(C)c5CCC(=O)OCC)C(CCC(=O)OCC)=C4C)c(C)c3CCC(=O)OCC [Coproporphyrin III tetraethylester] | 678 | 95200 | IC50 [3, 5]: 124 µM
